The source of these data is patent US10159738B2, “Organic-inorganic hybrid solid having a modified outer surface” (CENTRE NATIONAL DE LA RECHERCHE SCIENTIFIQUE-CNRS, priority 2012, dated 2018).

One data set has as its system J774 cell line. Put plainly: Penetration in the J774 cell line (CLSM, ATP-BODIPY label). It counts as cell-based, murine. The settings on record: 50 μg/ml, 15 min to 24 h. The method, then: For this analysis the MIL-100s were labeled with a fluorophore: adenosine 5′-triphosphate BODIPY-FL (ATP-BODIPY, adenosine 5′-triphosphate, BODIPY® FL, Invitrogen). 1.25 mg of MIL-100 was incubated with 500 μL of an aqueous solution of ATP-BODIPY 10 nmol/ml, for 1 h, with stirring in the dark at room temperature. At the end of incubation, the nanoparticles were recovered by centrifugation at 5600×g for 10 min, and the supernatant was analyzed by spectrofluorimetry in order to quantify the level of absorption of the fluorophore. The nanoparticles were then incubated in 500 μl of water (unmodified sample) or of an aqueous solution of βCDP 1.25 mg/ml, for 1 h with stirring, at room temperature, in the dark. At the end of incubation, the nanoparticles were recovered by centrifugation at 5600×g for 10 min and resuspended in RMPI 10% FBS (fetal bovine serum) to a final concentration of 50 μg/ml. The cells of the J774 line had been cultured beforehand in 24-well plates (5×10^4 cells per well) on a sterile glass cover slip.
After 24 h of incubation in a humidified incubator at 37° C., the culture medium was replaced with 1 ml of the solutions of nanoparticles loaded with ATP-BODIPY (unmodified or surface-modified), or with free ATP-BODIPY. After various incubation times (15 min, 1 h, 4 h, 24 h), the culture medium was aspirated and the cells were fixed.

The conditions of data set [1]: COOH groups; cited from earlier work.

Turning to “adenosine 5′-triphosphate, BODIPY® FL [ATP-BODIPY]”, in the data set with J774 cell line, the “internalization in the cells” value was “no fluorescence was observed in the cells”.
Turning to `O=C(O)c1cc(C(=O)O)cc(C(=O)O)c1` [trimesic acid, 1,3,5-benzenetricarboxylic acid], the pKa (usually the negative logarithm of the acid dissociation constant) in data set [1] is listed as 3.4.
